Columns and labels:
[1] = tested on: chickweed; experiment: Test D preemergence; assay type: in vivo, Stellaria media; settings: Stellaria media, pre-emergence, scale 0-100, read-out: Plant response rating, Chickweed
How it was run: (§1)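 Species were sown in silt loam for preemergence treatment, or grown in peat-based medium to the 1–4-leaf stage (2–18 cm) for postemergence sprays. Test chemicals were formulated in a non-phytotoxic solvent mixture with surfactant. After 7–21 days in a controlled environment, plants were rated visually against controls on a 0 (no effect) to 100 (complete control) scale.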

[2] = tested on: field violet; experiment: Test D preemergence; assay type: in vivo, Viola arvensis; settings: Viola arvensis, pre-emergence
How it was run: as §1

[3] = tested on: deadnettle; experiment: Test D preemergence; assay type: in vivo, Lamium amplexicaule; settings: Lamium amplexicaule, pre-emergence
How it was run: as §1

[4] = tested on: blackgrass; experiment: Test D postemergence; assay type: in vivo, Alopecurus myosuroides; settings: Alopecurus myosuroides, post-emergence, Postemergence, scale 0 to 100 (0 no effect, 100 complete control), read-out: Plant response rating, Blackgrass
Excerpt: (§2) Seeds of plant species selected from bluegrass (annual bluegrass, Poa annua), blackgrass (Alopecurus myosuroides), canarygrass (littleseed canarygrass, Phalaris minor), chickweed (common chickweed, Stellaria media), galium (catchweed bedstraw, Galium aparine), bromegrass, downy (downy bromegrass, Bromus tectorum), field poppy (Papaver rhoeas), field violet (Viola arvensis), green foxtail (Setaria viridis), deadnettle (henbit deadnettle, Lamium amplexicaule), Italian ryegrass (Lolium multiflorum), kochia (Kochia scoparia), lambsquarters (Chenopodium album), oilseed rape (Brassica napus), pigweed (Amaranthus retroflexus), chamomile (scentless chamomile, Matricaria inodora), Russian thistle (Salsola kali), speedwell (bird's-eye speedwell, Veronica persica), spring barley (Hordeum vulgare), spring wheat (Triticum aestivum), wild buckwheat (Polygonum convolvulus), wild mustard (Sinapis arvensis), wild oat (Avena fatua), wild radish (Raphanus raphanistrum), windgrass (Apera spica-venti), winter barley (Hordeum vulgare), and winter wheat (Triticum aestivum) were planted into a silt loam soil and treated preemergence with test chemicals formulated in a non-phytotoxic solvent mixture which included a surfactant.
(§3) At the same time, these species were planted in pots containing Redi-Earth® planting medium (Scotts Company, 14111 Scottslawn Road, Marysville, Ohio 43041) comprising spaghnum peat moss, vermiculite, wetting agent and starter nutrients and treated with postemergence applications of the test chemicals formulated in the same manner. Plants ranged in height from 2 to 18 cm (1- to 4-leaf stage). Treated plants and controls were maintained in a controlled growth environment for 7 to 21 days after which time all species were compared to controls and visually evaluated. Plant response ratings, summarized in Table D, are based on a scale of 0 to 100 where 0 is no effect and 100 is complete control. A dash (-) response means no test result.

[5] = tested on: galium; experiment: Test D postemergence; assay type: in vivo, Galium aparine; settings: Galium, post-emergence
How it was run: as §1

[6] = tested on: Italian ryegrass; experiment: Test D postemergence; assay type: in vivo, Lolium multiflorum; settings: Lolium multiflorum, post-emergence
Excerpt: as §2, §3

[7] = tested on: kochia; experiment: Test D postemergence; assay type: in vivo, Kochia scoparia; settings: Bassia scoparia, post-emergence
How it was run: as §1

[8] = tested on: speedwell; experiment: Test D postemergence; assay type: in vivo, Veronica persica; settings: Veronica persica, post-emergence
How it was run: as §1

[9] = tested on: wild buckwheat; experiment: Test D postemergence; assay type: in vivo, Polygonum convolvulus; settings: Fallopia convolvulus, post-emergence, Postemergence, scale 0 to 100 (0 no effect, 100 complete control), read-out: Plant response rating, Buckwheat, Wild
How it was run: as §1

FC(F)(F)c1cnn(-c2ccccc2Oc2ncc(Br)cn2)c1 [Compound 18, 5-bromo-2-[2-[4-(trifluoromethyl)-1H-pyrazol-1-yl]phenoxy]pyrimidine]
pest or weed control at 125 g/ha ([1]; 125 g ai/ha): 90%
pest or weed control at 250 g/ha ([1]; 250 g ai/ha): 100%
pest or weed control at 16 g/ha ([2]; 16 g ai/ha, scale 0 (no effect) to 100 (complete control), read-out: Plant response rating, Field Violet): 65%
pest or weed control at 31 g/ha ([2]; 31 g ai/ha, scale 0-100, read-out: Plant response rating, Field Violet): 70%
pest or weed control at 62 g/ha ([2]; 62 g ai/ha, scale 0-100, read-out: Plant response rating, Field Violet): 85%
pest or weed control at 125 g/ha ([2]; 125 g ai/ha, scale 0-100, read-out: Plant response rating, Field Violet): 85%
pest or weed control at 250 g/ha ([2]; 250 g ai/ha, scale 0-100, read-out: Plant response rating, Field Violet): 90%
pest or weed control at 16 g/ha ([3]; 16 g ai/ha, scale 0 (no effect) to 100 (complete control), read-out: Plant response rating, Deadnettle): 10%
pest or weed control at 31 g/ha ([3]; 31 g ai/ha, scale 0-100, read-out: Plant response rating, Deadnettle): 5%
pest or weed control at 62 g/ha ([3]; 62 g ai/ha, scale 0-100, read-out: Plant response rating, Deadnettle): 55%
pest or weed control at 125 g/ha ([3]; 125 g ai/ha, scale 0-100, read-out: Plant response rating, Deadnettle): 70%
pest or weed control at 250 g/ha ([3]; 250 g ai/ha, scale 0-100, read-out: Plant response rating, Deadnettle): 100%
pest or weed control at 62 g/ha ([4]; 62 g ai/ha): 15%
pest or weed control at 16 g/ha ([4]; 16 g ai/ha): 10%
pest or weed control at 31 g/ha ([4]; 31 g ai/ha): 15%
pest or weed control at 125 g/ha ([4]; 125 g ai/ha): 20%
pest or weed control at 250 g/ha ([4]; 250 g ai/ha): 35%
pest or weed control at 16 g/ha ([5]; 16 g ai/ha, scale 0-100, read-out: Plant response rating, Galium): 40%
pest or weed control at 31 g/ha ([5]; 31 g ai/ha, scale 0 to 100 (0 no effect, 100 complete control), read-out: Plant response rating, Galium): 60%
pest or weed control at 62 g/ha ([5]; 62 g ai/ha, scale 0 to 100 (0 no effect, 100 complete control), read-out: Plant response rating, Galium): 70%
pest or weed control at 125 g/ha ([5]; 125 g ai/ha, scale 0 to 100 (0 no effect, 100 complete control), read-out: Plant response rating, Galium): 65%
pest or weed control at 250 g/ha ([5]; 250 g ai/ha, scale 0 to 100 (0 no effect, 100 complete control), read-out: Plant response rating, Galium): 70%
pest or weed control at 16 g/ha ([6]; 16 g ai/ha, scale 0-100, read-out: Plant response rating, Ryegrass, Italian): 5%
pest or weed control at 31 g/ha ([6]; 31 g ai/ha, scale 0 to 100 (0 no effect, 100 complete control), read-out: Plant response rating, Ryegrass, Italian): 5%
pest or weed control at 62 g/ha ([6]; 62 g ai/ha, scale 0 to 100 (0 no effect, 100 complete control), read-out: Plant response rating, Ryegrass, Italian): 5%
pest or weed control at 125 g/ha ([6]; 125 g ai/ha, scale 0 to 100 (0 no effect, 100 complete control), read-out: Plant response rating, Ryegrass, Italian): 10%
pest or weed control at 250 g/ha ([6]; 250 g ai/ha, scale 0 to 100 (0 no effect, 100 complete control), read-out: Plant response rating, Ryegrass, Italian): 15%
pest or weed control at 16 g/ha ([7]; 16 g ai/ha, scale 0-100, read-out: Plant response rating, Kochia): 35%
pest or weed control at 31 g/ha ([7]; 31 g ai/ha, scale 0 to 100 (0 no effect, 100 complete control), read-out: Plant response rating, Kochia): 85%
pest or weed control at 62 g/ha ([7]; 62 g ai/ha, scale 0 to 100 (0 no effect, 100 complete control), read-out: Plant response rating, Kochia): 90%
pest or weed control at 125 g/ha ([7]; 125 g ai/ha, scale 0 to 100 (0 no effect, 100 complete control), read-out: Plant response rating, Kochia): 100%
pest or weed control at 250 g/ha ([7]; 250 g ai/ha, scale 0 to 100 (0 no effect, 100 complete control), read-out: Plant response rating, Kochia): 100%
pest or weed control at 16 g/ha ([8]; 16 g ai/ha, scale 0-100, read-out: Plant response rating, Speedwell): 100%
pest or weed control at 31 g/ha ([8]; 31 g ai/ha, scale 0 to 100 (0 no effect, 100 complete control), read-out: Plant response rating, Speedwell): 100%
pest or weed control at 62 g/ha ([8]; 62 g ai/ha, scale 0 to 100 (0 no effect, 100 complete control), read-out: Plant response rating, Speedwell): 100%
pest or weed control at 125 g/ha ([8]; 125 g ai/ha, scale 0 to 100 (0 no effect, 100 complete control), read-out: Plant response rating, Speedwell): 100%
pest or weed control at 250 g/ha ([8]; 250 g ai/ha, scale 0 to 100 (0 no effect, 100 complete control), read-out: Plant response rating, Speedwell): 100%
pest or weed control at 16 g/ha ([9]; 16 g ai/ha): 60%
pest or weed control at 31 g/ha ([9]; 31 g ai/ha): 55%
pest or weed control at 62 g/ha ([9]; 62 g ai/ha): 70%
pest or weed control at 125 g/ha ([9]; 125 g ai/ha): 100%
pest or weed control at 250 g/ha ([9]; 250 g ai/ha): 95%

Reference: patent US9695155B2, “Herbicidal substituted pyrimidinyloxy benzene compounds” (E. I. DU PONT DE NEMOURS AND COMPANY, priority 2013, dated 2017)
